Assay results as given in PubChem BioAssay AID2060493 (Molecular Pharmacology Branch, DTP, NCI, 2025).
pIC50: −log10 of the molar value.

Tested on: 616215-338-R-J1-PDC tumor spheroids, viability
Test: Anticancer human tumor 616215-338-R-J1-PDC patient-derived colon adenocarcinoma cell line growth inhibition [GQUAD]
Conditions: spheroids with HUVEC and MSC; for pIC50: curve of first compound; for viability, T/C: stronger effect = lower value
Method in brief: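 Viability of tumor cells grown as complex spheroids with endothelial and stromal cells, exposed to drug combinations. Top concentration at or near clinical Cmax (else 10 microM), diluted in half-log increments.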

[1] = second compound 0.0316 µM, first compound 0.0316 µM
[2] = second compound 0.0316 µM, first compound 0.1 µM
[3] = second compound 0.0316 µM, first compound 0.316 µM
[4] = second compound 0.0316 µM, first compound 1 µM
[5] = second compound 0.0316 µM, first compound 3.16 µM
[6] = second compound 0.0316 µM, first compound 10 µM
[7] = second compound 0.1 µM, first compound 0.0316 µM
[8] = second compound 0.1 µM, first compound 0.1 µM
[9] = second compound 0.1 µM, first compound 0.316 µM
[10] = second compound 0.1 µM, first compound 1 µM
[11] = second compound 0.1 µM, first compound 3.16 µM
[12] = second compound 0.1 µM, first compound 10 µM
[13] = second compound 0.316 µM, first compound 0.0316 µM
[14] = second compound 0.316 µM, first compound 0.1 µM
[15] = second compound 0.316 µM, first compound 0.316 µM
[16] = second compound 0.316 µM, first compound 1 µM
[17] = second compound 0.316 µM, first compound 3.16 µM
[18] = second compound 0.316 µM, first compound 10 µM
[19] = second compound 1 µM, first compound 0.0316 µM
[20] = second compound 1 µM, first compound 0.1 µM
[21] = second compound 1 µM, first compound 0.316 µM
[22] = second compound 1 µM, first compound 1 µM
[23] = second compound 1 µM, first compound 3.16 µM
[24] = second compound 1 µM, first compound 10 µM
[25] = second compound 3.16 µM, first compound 0.0316 µM
[26] = second compound 3.16 µM, first compound 0.1 µM
[27] = second compound 3.16 µM, first compound 0.316 µM
[28] = second compound 3.16 µM, first compound 1 µM
[29] = second compound 3.16 µM, first compound 3.16 µM
[30] = second compound 3.16 µM, first compound 10 µM
[31] = second compound 10 µM, first compound 0.0316 µM
[32] = second compound 10 µM, first compound 0.1 µM
[33] = second compound 10 µM, first compound 0.316 µM
[34] = second compound 10 µM, first compound 1 µM
[35] = second compound 10 µM, first compound 3.16 µM
[36] = second compound 10 µM, first compound 10 µM
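Also: spheroids exposed to agents for 7 days before readout.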
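For viability, T/C in this document: percent viability relative to DMSO vehicle control wells taken as 100%.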

`CC1COCCN1c1cc(C2(S(C)(=N)=O)CC2)nc(-c2ccnc3[nH]ccc23)n1` (stereo unspecified) + CN(C)c1ccc(Nc2c3ccc(NC(=O)CCN4CCCC4)cc3nc3cc(NC(=O)CCN4CCCC4)ccc23)cc1 showed a pIC50 (second compound 0.0316 µM) of 5.55, a pIC50 (second compound 0.1 µM) of 5.31 and a pIC50 (second compound 0.316 µM) of 5.25. It also gave a pIC50 (second compound 1 µM) of 5.28, a pIC50 (second compound 3.16 µM) of 5.29 and a pIC50 (second compound 10 µM) of 5.46. It also gave a viability, T/C [1] of 116%, a viability, T/C [2] of 102% and a viability, T/C [3] of 103%. It also gave a viability, T/C [4] of 97.6%, a viability, T/C [5] of 44.4% and a viability, T/C [6] of 31.5%. It also gave a viability, T/C [7] of 105%, a viability, T/C [8] of 97% and a viability, T/C [9] of 104%. It also gave a viability, T/C [10] of 98%, a viability, T/C [11] of 63.5% and a viability, T/C [12] of 28.2%. It also gave a viability, T/C [13] of 98.1%, a viability, T/C [14] of 106% and a viability, T/C [15] of 102%. For the same compound, the viability, T/C [16] was 96.6%, the viability, T/C [17] was 69.9% and the viability, T/C [18] was 30.1%. The viability, T/C [19] was 93.2%, the viability, T/C [20] was 97.3% and the viability, T/C [21] was 99.3%. The viability, T/C [22] was 95.9%, the viability, T/C [23] was 69.2% and the viability, T/C [24] was 24.8%. The viability, T/C [25] was 99%, the viability, T/C [26] was 102% and the viability, T/C [27] was 94.3%. It also gave a viability, T/C [28] of 97.7%, a viability, T/C [29] of 68.1% and a viability, T/C [30] of 25.9%. For the same compound, the viability, T/C [31] was 94%, the viability, T/C [32] was 94% and the viability, T/C [33] was 89.2%. For the same compound, the viability, T/C [34] was 86.1%, the viability, T/C [35] was 51.7% and the viability, T/C [36] was 29.6%.
`COc1cccc2c1C(=O)c1c(O)c3c(c(O)c1C2=O)CC(O)(C(=O)CO)CC3OC1CC(N)C(O)C(C)O1` (stereo unspecified) + Cc1[nH]c2ccc(F)cc2c1-c1nc2c3cccnc3c3ncccc3c2[nH]1 was tested, and the pIC50 (second compound 0.0316 µM) was 6.11, the pIC50 (second compound 0.1 µM) was 6.30 and the pIC50 (second compound 0.316 µM) was 6.26. The pIC50 (second compound 1 µM) was 6.03, the pIC50 (second compound 3.16 µM) was 6.30 and the pIC50 (second compound 10 µM) was 6.21. It also gave a viability, T/C [1] of 108%, a viability, T/C [2] of 88.2% and a viability, T/C [3] of 58.6%. It also gave a viability, T/C [4] of 39.3%, a viability, T/C [5] of 38.8% and a viability, T/C [6] of 2.47%. The viability, T/C [7] was 96.8%, the viability, T/C [8] was 92.8% and the viability, T/C [9] was 46.3%. The viability, T/C [10] was 41.5%, the viability, T/C [11] was 21.6% and the viability, T/C [12] was 4%. It also gave a viability, T/C [13] of 105%, a viability, T/C [14] of 75.5% and a viability, T/C [15] of 53.7%. The viability, T/C [16] was 49%, the viability, T/C [17] was 18.7% and the viability, T/C [18] was 2.01%. The viability, T/C [19] was 91.7%, the viability, T/C [20] was 91.2% and the viability, T/C [21] was 71.6%. For the same compound, the viability, T/C [22] was 44.5%, the viability, T/C [23] was 27.6% and the viability, T/C [24] was 2.3%. For the same compound, the viability, T/C [25] was 89.2%, the viability, T/C [26] was 84.6% and the viability, T/C [27] was 50%. It also gave a viability, T/C [28] of 39%, a viability, T/C [29] of 23.4% and a viability, T/C [30] of 1.17%. It also gave a viability, T/C [31] of 103%, a viability, T/C [32] of 76.2% and a viability, T/C [33] of 55.6%. For the same compound, the viability, T/C [34] was 54.8%, the viability, T/C [35] was 20.1% and the viability, T/C [36] was 1.64%.
With `O=C(c1cc(Cc2n[nH]c(=O)c3ccccc23)ccc1F)N1CCN(C(=O)C2CC2)CC1` + CN(C)c1ccc(Nc2c3ccc(NC(=O)CCN4CCCC4)cc3nc3cc(NC(=O)CCN4CCCC4)ccc23)cc1 the pIC50 (second compound 0.0316 µM) was less than 5.00, the pIC50 (second compound 0.1 µM) was less than 5.00 and the pIC50 (second compound 0.316 µM) was less than 5.00. The pIC50 (second compound 1 µM) was less than 5.00, the pIC50 (second compound 3.16 µM) was less than 5.00 and the pIC50 (second compound 10 µM) was less than 5.00. The viability, T/C [1] was 100%, the viability, T/C [2] was 95.7% and the viability, T/C [3] was 103%. It also gave a viability, T/C [4] of 111%, a viability, T/C [5] of 110% and a viability, T/C [6] of 71.9%. The viability, T/C [7] was 103%, the viability, T/C [8] was 102% and the viability, T/C [9] was 104%. It also gave a viability, T/C [10] of 103%, a viability, T/C [11] of 111% and a viability, T/C [12] of 74.8%. For the same compound, the viability, T/C [13] was 104%, the viability, T/C [14] was 114% and the viability, T/C [15] was 112%. The viability, T/C [16] was 106%, the viability, T/C [17] was 99.3% and the viability, T/C [18] was 68.6%. It also gave a viability, T/C [19] of 108%, a viability, T/C [20] of 100% and a viability, T/C [21] of 96.9%. For the same compound, the viability, T/C [22] was 97.3%, the viability, T/C [23] was 104% and the viability, T/C [24] was 69%. The viability, T/C [25] was 112%, the viability, T/C [26] was 97.8% and the viability, T/C [27] was 98.8%. It also gave a viability, T/C [28] of 109%, a viability, T/C [29] of 105% and a viability, T/C [30] of 57.4%. For the same compound, the viability, T/C [31] was 96.6%, the viability, T/C [32] was 82.9% and the viability, T/C [33] was 99.3%. For the same compound, the viability, T/C [34] was 99.6%, the viability, T/C [35] was 67% and the viability, T/C [36] was 54.9%.
